Reference: the supplement of paper PMC10883282

Columns and labels:
Assay in all cases: relative viability vs DMSO control (72 h) (fraction); higher = more viable cells
A204 = tested on: A204
Outline: (§1)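 Sarcoma cell lines were seeded in 384-well plates at densities chosen for 80–90% confluence, then 24 h later given 2.5 µl of serially diluted compound drawn from source plates spanning 10 mM to 0.0002 mM. They were held 72 h at 37 °C, 5% CO2, with 0.1% DMSO vehicle and a 5 µM positive control included. Relative viability was read with ATPLite as percent growth and averaged over up to triplicate wells. Rescaling placed full at 1 and none at 0.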

G401 = tested on: G401
Outline: as §1

HS729 = tested on: HS729
Outline: as §1

KHOS-240S = tested on: KHOS-240S
Outline: as §1

MES-SA = tested on: MES-SA
Outline: as §1

RD = tested on: RD
Outline: as §1

SK-ES-1 = tested on: SK-ES-1
Outline: as §1

SK-LMS-1 = tested on: SK-LMS-1
Outline: as §1

SW1353 = tested on: SW1353
Outline: as §1

SW872 = tested on: SW872
Outline: as §1

SW982 = tested on: SW982
Outline: as §1

VA-ES-BJ = tested on: VA-ES-BJ
Outline: as §1

COC(=O)N[C@@H](C)CNc1nccc(-c2cn(C(C)C)nc2-c2cc(Cl)cc(NS(C)(=O)=O)c2F)n1 [Encorafenib]
Conditions	relative viability
A204, 0.00017 µM	0.99
A204, 0.00051 µM	0.991
A204, 0.00152 µM	1
A204, 0.00457 µM	0.982
A204, 0.01372 µM	0.973
A204, 0.04115 µM	0.988
A204, 0.1235 µM	1
A204, 0.3704 µM	0.96
A204, 1.111 µM	0.838
A204, 3.333 µM	0.602
A204, 10 µM	0.574
G401, 0.00017 µM	0.975
G401, 0.00051 µM	1.01
G401, 0.00152 µM	0.9948
G401, 0.00457 µM	1.01
G401, 0.01372 µM	1.02
G401, 0.04115 µM	1.06
G401, 0.1235 µM	1.04
G401, 0.3704 µM	1.01
G401, 1.111 µM	0.841
G401, 3.333 µM	0.653
G401, 10 µM	0.5834
HS729, 0.00017 µM	1.069
HS729, 0.00051 µM	1.077
HS729, 0.00152 µM	1.07
HS729, 0.00457 µM	0.993
HS729, 0.01372 µM	0.994
HS729, 0.04115 µM	0.995
HS729, 0.1235 µM	1.04
HS729, 0.3704 µM	0.975
HS729, 1.111 µM	0.821
HS729, 3.333 µM	0.69
HS729, 10 µM	0.719
KHOS-240S, 0.00017 µM	0.998
KHOS-240S, 0.00051 µM	0.986
KHOS-240S, 0.00152 µM	1.01
KHOS-240S, 0.00457 µM	0.993
KHOS-240S, 0.01372 µM	0.964
KHOS-240S, 0.04115 µM	0.981
KHOS-240S, 0.1235 µM	0.991
KHOS-240S, 0.3704 µM	0.97
KHOS-240S, 1.111 µM	0.904
KHOS-240S, 3.333 µM	0.788
KHOS-240S, 10 µM	0.732
MES-SA, 0.00017 µM	0.98
MES-SA, 0.00051 µM	0.944
MES-SA, 0.00152 µM	1
MES-SA, 0.00457 µM	0.985
MES-SA, 0.01372 µM	0.958
MES-SA, 0.04115 µM	1.01
MES-SA, 0.1235 µM	0.998
MES-SA, 0.3704 µM	0.972
MES-SA, 1.111 µM	0.714
MES-SA, 3.333 µM	0.461
MES-SA, 10 µM	0.547
RD, 0.00017 µM	0.963
RD, 0.00051 µM	1.01
RD, 0.00152 µM	1.015
RD, 0.00457 µM	1
RD, 0.01372 µM	1.01
RD, 0.04115 µM	1.01
RD, 0.1235 µM	1.01
RD, 0.3704 µM	0.978
RD, 1.111 µM	0.807
RD, 3.333 µM	0.447
RD, 10 µM	0.45
SK-ES-1, 0.00017 µM	0.928
SK-ES-1, 0.00051 µM	0.948
SK-ES-1, 0.00152 µM	0.972
SK-ES-1, 0.00457 µM	0.979
SK-ES-1, 0.01372 µM	0.956
SK-ES-1, 0.04115 µM	1.02
SK-ES-1, 0.1235 µM	0.982
SK-ES-1, 0.3704 µM	0.813
SK-ES-1, 1.111 µM	0.5375
SK-ES-1, 3.333 µM	0.308
SK-ES-1, 10 µM	0.394
SK-LMS-1, 0.00017 µM	1.01
SK-LMS-1, 0.00051 µM	1.02
SK-LMS-1, 0.00152 µM	0.9804
SK-LMS-1, 0.00457 µM	1.017
SK-LMS-1, 0.01372 µM	0.953
SK-LMS-1, 0.04115 µM	0.933
SK-LMS-1, 0.1235 µM	0.9782
SK-LMS-1, 0.3704 µM	0.894
SK-LMS-1, 1.111 µM	0.7389
SK-LMS-1, 3.333 µM	0.49
SK-LMS-1, 10 µM	0.441
SW872, 0.00017 µM	0.96
SW872, 0.00051 µM	0.952
SW872, 0.00152 µM	0.96
SW872, 0.00457 µM	0.902
SW872, 0.01372 µM	0.729
SW872, 0.04115 µM	0.599
SW872, 0.1235 µM	0.555
SW872, 0.3704 µM	0.524
SW872, 1.111 µM	0.459
SW872, 3.333 µM	0.335
SW872, 10 µM	0.295
SW982, 0.00017 µM	0.94
SW982, 0.00051 µM	0.946
SW982, 0.00152 µM	0.887
SW982, 0.00457 µM	0.877
SW982, 0.01372 µM	0.853
SW982, 0.04115 µM	0.828
SW982, 0.1235 µM	0.798
SW982, 0.3704 µM	0.704
SW982, 1.111 µM	0.489
SW982, 3.333 µM	0.327
SW982, 10 µM	0.308
SW1353, 0.00017 µM	1.06
SW1353, 0.00051 µM	1.09
SW1353, 0.00152 µM	1.1
SW1353, 0.00457 µM	1.08
SW1353, 0.01372 µM	1.086
SW1353, 0.04115 µM	1.08
SW1353, 0.1235 µM	1.07
SW1353, 0.3704 µM	1.1
SW1353, 1.111 µM	0.966
SW1353, 3.333 µM	0.767
SW1353, 10 µM	0.739
VA-ES-BJ, 0.00017 µM	1.02
VA-ES-BJ, 0.00051 µM	1.04
VA-ES-BJ, 0.00152 µM	1.04
VA-ES-BJ, 0.00457 µM	1.03
VA-ES-BJ, 0.01372 µM	1.03
VA-ES-BJ, 0.04115 µM	1.03
VA-ES-BJ, 0.1235 µM	1
VA-ES-BJ, 0.3704 µM	0.989
VA-ES-BJ, 1.111 µM	0.852
VA-ES-BJ, 3.333 µM	0.637
VA-ES-BJ, 10 µM	0.659

CN1CCN(c2ccc(C(=O)Nc3n[nH]c4ccc(Cc5cc(F)cc(F)c5)cc34)c(NC3CCOCC3)c2)CC1 [Entrectinib]
Conditions	relative viability
A204, 0.00017 µM	1.05
A204, 0.00051 µM	1.06
A204, 0.00152 µM	1.04
A204, 0.00457 µM	1.06
A204, 0.01372 µM	1.09
A204, 0.04115 µM	1.04
A204, 0.1235 µM	1.02
A204, 0.3704 µM	1.05
A204, 1.111 µM	1.04
A204, 3.333 µM	0.865
A204, 10 µM	0.228
G401, 0.00017 µM	1.04
G401, 0.00051 µM	1.01
G401, 0.00152 µM	1.057
G401, 0.00457 µM	1.07
G401, 0.01372 µM	1.03
G401, 0.04115 µM	1.01
G401, 0.1235 µM	1.011
G401, 0.3704 µM	0.979
G401, 1.111 µM	0.87
G401, 3.333 µM	0.651
G401, 10 µM	0.163
HS729, 0.00017 µM	1.06
HS729, 0.00051 µM	0.975
HS729, 0.00152 µM	0.931
HS729, 0.00457 µM	0.948
HS729, 0.01372 µM	0.946
HS729, 0.04115 µM	0.959
HS729, 0.1235 µM	0.925
HS729, 0.3704 µM	0.919
HS729, 1.111 µM	0.832
HS729, 3.333 µM	0.665
HS729, 10 µM	0.382
KHOS-240S, 0.00017 µM	1.06
KHOS-240S, 0.00051 µM	1.061
KHOS-240S, 0.00152 µM	1.1
KHOS-240S, 0.00457 µM	1.08
KHOS-240S, 0.01372 µM	1.08
KHOS-240S, 0.04115 µM	1.07
KHOS-240S, 0.1235 µM	1.08
KHOS-240S, 0.3704 µM	1
KHOS-240S, 1.111 µM	0.939
KHOS-240S, 3.333 µM	0.617
KHOS-240S, 10 µM	0.0159
MES-SA, 0.00017 µM	0.942
MES-SA, 0.00051 µM	0.942
MES-SA, 0.00152 µM	0.931
MES-SA, 0.00457 µM	0.925
MES-SA, 0.01372 µM	0.899
MES-SA, 0.04115 µM	0.904
MES-SA, 0.1235 µM	0.892
MES-SA, 0.3704 µM	0.893
MES-SA, 1.111 µM	0.821
MES-SA, 3.333 µM	0.702
MES-SA, 10 µM	0.364
RD, 0.00017 µM	1.08
RD, 0.00051 µM	1.13
RD, 0.00152 µM	1.14
RD, 0.00457 µM	1.13
RD, 0.01372 µM	1.11
RD, 0.04115 µM	1.1
RD, 0.1235 µM	1.11
RD, 0.3704 µM	1.07
RD, 1.111 µM	0.934
RD, 3.333 µM	0.589
RD, 10 µM	0.0669
SK-ES-1, 0.00017 µM	1.09
SK-ES-1, 0.00051 µM	1.04
SK-ES-1, 0.00152 µM	1.05
SK-ES-1, 0.00457 µM	1.06
SK-ES-1, 0.01372 µM	1.03
SK-ES-1, 0.04115 µM	1.1
SK-ES-1, 0.1235 µM	1.05
SK-ES-1, 0.3704 µM	0.959
SK-ES-1, 1.111 µM	0.844
SK-ES-1, 3.333 µM	0.465
SK-ES-1, 10 µM	0.105
SK-LMS-1, 0.00017 µM	1.13
SK-LMS-1, 0.00051 µM	1.1
SK-LMS-1, 0.00152 µM	1.12
SK-LMS-1, 0.00457 µM	1.13
SK-LMS-1, 0.01372 µM	1.1
SK-LMS-1, 0.04115 µM	1.07
SK-LMS-1, 0.1235 µM	1.07
SK-LMS-1, 0.3704 µM	1.072
SK-LMS-1, 1.111 µM	1.03
SK-LMS-1, 3.333 µM	0.856
SK-LMS-1, 10 µM	0.0143
SW872, 0.00017 µM	1.11
SW872, 0.00051 µM	1.09
SW872, 0.00152 µM	1.1
SW872, 0.00457 µM	1.07
SW872, 0.01372 µM	1.05
SW872, 0.04115 µM	1.05
SW872, 0.1235 µM	1.03
SW872, 0.3704 µM	0.961
SW872, 1.111 µM	0.887
SW872, 3.333 µM	0.66
SW872, 10 µM	0.218
SW982, 0.00017 µM	1.03
SW982, 0.00051 µM	1.05
SW982, 0.00152 µM	1.05
SW982, 0.00457 µM	1.07
SW982, 0.01372 µM	1.05
SW982, 0.04115 µM	1.06
SW982, 0.1235 µM	1.06
SW982, 0.3704 µM	0.991
SW982, 1.111 µM	0.865
SW982, 3.333 µM	0.548
SW982, 10 µM	0.0591
SW1353, 0.00017 µM	1.04
SW1353, 0.00051 µM	1.05
SW1353, 0.00152 µM	1.01
SW1353, 0.00457 µM	1.01
SW1353, 0.01372 µM	0.976
SW1353, 0.04115 µM	0.985
SW1353, 0.1235 µM	0.9886
SW1353, 0.3704 µM	0.9517
SW1353, 1.111 µM	0.953
SW1353, 3.333 µM	0.782
SW1353, 10 µM	0.0075
VA-ES-BJ, 0.00017 µM	1.09
VA-ES-BJ, 0.00051 µM	1.08
VA-ES-BJ, 0.00152 µM	1.06
VA-ES-BJ, 0.00457 µM	1.05
VA-ES-BJ, 0.01372 µM	1.06
VA-ES-BJ, 0.04115 µM	1.03
VA-ES-BJ, 0.1235 µM	1.022
VA-ES-BJ, 0.3704 µM	1.01
VA-ES-BJ, 1.111 µM	0.976
VA-ES-BJ, 3.333 µM	0.894
VA-ES-BJ, 10 µM	0.575
